Experimental data reported in ChEMBL document CHEMBL5252609, “Design, synthesis, and antitumor evaluation of morpholine substituted bisnaphthalimides as DNA targeting agents” (Bioorg Med Chem Lett, 2023).
Active and inactive are the calls of the source. The calls are words filed in the database; no cut-off is given here.

What was measured:
CNE-2 [1] = experiment: Induction of cell cycle arrest in human CNE-2 cells assessed as accumulation of cells at G2 phase at 1 uM measured after 48 hrs by flow cytometry analysis (Rvb= 6.99%); format: functional
Homo sapiens [2] = species on record: Homo sapiens; experiment: Binding affinity to pBR322 DNA (unknown origin) assessed as induced retardation of DNA migration at 20 to 100 uM by gel electrophoresis assay; conditions: dose 20-100 µM
CNE-2 [3] = experiment: Induction of cell cycle arrest in human CNE-2 cells assessed as accumulation of cells at G2 phase at 0.5 uM measured after 48 hrs by flow cytometry analysis (Rvb= 6.99%); format: functional
CNE-2 [4] = experiment: Induction of cell cycle arrest in human CNE-2 cells assessed as accumulation of cells at G2 phase at 2 uM measured after 48 hrs by flow cytometry analysis (Rvb= 6.99%); format: functional
MGC-803 [5] = experiment: Antitumor activity against human MGC-803 cells xenografted in nude mouse assessed as reduction in tumor volume growth rate at 4 mg/kg, ip administrated every other day for 21 days relative to control; format: functional; parameters: scale not given: the % may be the effect or the level left; conditions: time 21 day
CNE-2 [6] = experiment: Induction of cell cycle arrest in human CNE-2 cells assessed as accumulation of cells at S phase at 1 uM measured after 48 hrs by flow cytometry analysis (Rvb= 19.83%); format: functional
CNE-2 [7] = experiment: Induction of cell cycle arrest in human CNE-2 cells assessed as accumulation of cells at G1 phase at 2 uM measured after 48 hrs by flow cytometry analysis (Rvb= 73.18%); format: functional
CNE-2 [8] = experiment: Induction of apoptosis in human CNE-2 cells assessed as viable cells at 0.5 uM measured after 24 hrs by annexin-V-FITC and PI staining based flow cytometry analysis (reference value: 94.8%); format: functional; conditions: read-out: Activity
CNE-2 [9] = experiment: Downregulation of cyclin E level in human CNE-2 cells measured after 48 hrs by Western blot analysis; format: functional, cell-based; conditions: dose <= 2.0 µM
CNE-2 [10] = experiment: Induction of apoptosis in human CNE-2 cells assessed as necrotic cells at 0.5 uM measured after 24 hrs by annexin-V-FITC and PI staining based flow cytometry analysis (reference value: 0.959%); format: functional
CNE-2 [11] = experiment: Induction of cell cycle arrest in human CNE-2 cells assessed as accumulation of cells at G1 phase at 0.5 uM measured after 48 hrs by flow cytometry analysis (Rvb= 73.18%); format: functional
CNE-2 [12] = experiment: Upregulation of p27 level in human CNE-2 cells measured after 48 hrs by Western blot analysis; format: functional, cell-based; conditions: dose <= 2.0 µM
Homo sapiens [13] = species on record: Homo sapiens; experiment: Binding affinity to pBR322 DNA (unknown origin) assessed as DNA intercalation at 20 to 100 uM by electrophoresis assay; conditions: dose 20-100 µM
MGC-803 [14] = experiment: Toxicity in nude mouse xenografted with human MGC-803 cells assessed as morphological changes in liver at 8 mg/kg, ip administrated every other day for 21 days; format: functional, organism-based; conditions: time 21.0 day
CNE-2 [15] = experiment: Induction of apoptosis in human CNE-2 cells assessed as late apoptotic cells at 1 uM measured after 24 hrs by annexin-V-FITC and PI staining based flow cytometry analysis (reference value: 3.79%); format: functional
CNE-2 [16] = experiment: Induction of cell cycle arrest in human CNE-2 cells assessed as accumulation of cells at S phase at 2 uM measured after 48 hrs by flow cytometry analysis (Rvb= 19.83%); format: functional
CNE-2 [17] = experiment: Induction of apoptosis in human CNE-2 cells assessed as necrotic cells at 1 uM measured after 24 hrs by annexin-V-FITC and PI staining based flow cytometry analysis (reference value: 0.959%); format: functional
MGC-803 [18] = experiment: Antitumor activity against human MGC-803 cells xenografted in nude mouse assessed as reduction in tumor volume growth rate at 8 mg/kg, ip administrated every other day for 21 days relative to control; format: functional; parameters: scale not given: the % may be the effect or the level left; conditions: time 21 day
CNE-2 [19] = experiment: Induction of apoptosis in human CNE-2 cells assessed as early apoptotic cells at 2 uM measured after 24 hrs by annexin-V-FITC and PI staining based flow cytometry analysis (reference value: 0.439%); format: functional
CNE-2 [20] = experiment: Induction of cell cycle arrest in human CNE-2 cells assessed as accumulation of cells at S phase at 0.5 uM measured after 48 hrs by flow cytometry analysis (Rvb= 19.83%); format: functional
CNE-2 [21] = experiment: Induction of apoptosis in human CNE-2 cells assessed as early apoptotic cells at 0.5 uM measured after 24 hrs by annexin-V-FITC and PI staining based flow cytometry analysis (reference value: 0.439%); format: functional
CNE-2 [22] = experiment: Induction of apoptosis in human CNE-2 cells assessed as late apoptotic cells at 0.5 uM measured after 24 hrs by annexin-V-FITC and PI staining based flow cytometry analysis (reference value: 3.79%); format: functional
CNE-2 [23] = experiment: Induction of apoptosis in human CNE-2 cells assessed as necrotic cells at 2 uM measured after 24 hrs by annexin-V-FITC and PI staining based flow cytometry analysis (reference value: 0.959%); format: functional
MGC-803 [24] = experiment: Antitumor activity against human MGC-803 cells xenografted in nude mouse assessed as reduction in tumor weight at 4 mg/kg, ip administrated every other day for 21 days relative to control; format: functional; parameters: scale not given: the % may be the effect or the level left; conditions: time 21 day
CNE-2 [25] = experiment: Downregulation of cyclin B level in human CNE-2 cells measured after 48 hrs by Western blot analysis; format: functional, cell-based; conditions: dose <= 2.0 µM
CNE-2 [26] = experiment: Induction of apoptosis in human CNE-2 cells assessed as viable cells at 2 uM measured after 24 hrs by annexin-V-FITC and PI staining based flow cytometry analysis (reference value: 94.8%); format: functional; conditions: read-out: Activity
[27] = target: T1, DNA topoisomerase 1 (Homo sapiens) (UniProt P11387); experiment: Inhibition of human DNA topoisomerase 1 assessed as reduction in pBR322 DNA relaxation at 10 to 20 uM by gel electrophoresis method; conditions: dose 10-20 µM
T1 sequence (whole entry): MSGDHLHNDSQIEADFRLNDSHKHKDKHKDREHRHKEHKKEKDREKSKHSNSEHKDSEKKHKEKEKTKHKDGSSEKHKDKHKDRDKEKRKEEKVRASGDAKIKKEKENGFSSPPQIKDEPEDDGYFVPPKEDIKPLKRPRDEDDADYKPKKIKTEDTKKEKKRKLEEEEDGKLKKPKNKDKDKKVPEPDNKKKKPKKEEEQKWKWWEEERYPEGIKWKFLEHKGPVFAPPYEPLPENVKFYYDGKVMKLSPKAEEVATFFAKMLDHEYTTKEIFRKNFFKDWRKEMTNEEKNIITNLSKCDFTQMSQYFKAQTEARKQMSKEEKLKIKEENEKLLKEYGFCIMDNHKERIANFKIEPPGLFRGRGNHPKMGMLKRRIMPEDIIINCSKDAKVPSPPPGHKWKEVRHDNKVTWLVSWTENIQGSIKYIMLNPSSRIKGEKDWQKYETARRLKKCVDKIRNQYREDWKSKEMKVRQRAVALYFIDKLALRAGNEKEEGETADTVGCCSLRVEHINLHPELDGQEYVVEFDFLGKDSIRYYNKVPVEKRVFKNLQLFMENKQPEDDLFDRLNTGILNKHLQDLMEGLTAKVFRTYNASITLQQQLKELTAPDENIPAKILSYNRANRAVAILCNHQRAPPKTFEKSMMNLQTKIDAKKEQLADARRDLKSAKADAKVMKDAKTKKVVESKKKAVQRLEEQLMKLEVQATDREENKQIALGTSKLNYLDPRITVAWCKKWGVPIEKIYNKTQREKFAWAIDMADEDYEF

| SMILES | Activity (CNE-2 [1]) | Activity (Homo sapiens [2]) | Activity (CNE-2 [3]) | Activity (CNE-2 [4]) | Activity (MGC-803 [5]) | Activity (CNE-2 [6]) | Activity (CNE-2 [7]) | viability at 0.5 µM (CNE-2 [8]) | Activity (CNE-2 [9]) | Activity (CNE-2 [10]) | Activity (CNE-2 [11]) | Activity (CNE-2 [12]) | Activity (Homo sapiens [13]) | Activity (MGC-803 [14]) | Activity (CNE-2 [15]) | Activity (CNE-2 [16]) | Activity (CNE-2 [17]) | Activity (MGC-803 [18]) | Activity (CNE-2 [19]) | Activity (CNE-2 [20]) | further results |
| --- | --- | --- | --- | --- | --- | --- | --- | --- | --- | --- | --- | --- | --- | --- | --- | --- | --- | --- | --- | --- | --- |
| CN(C)CCN1C(=O)c2cccc3c(N4CCOCC4)c([N+](=O)[O-])cc(c23)C1=O | 12.63% | Active | 7.03% | 25.48% | 59.9% | 18.12% | 38.9% | 84% | Dose-Dependent Effect | 2.12% | 72.47% | Dose-Dependent Effect | Active | Toxic | 8.53% | 35.62% | 5.56% | 56.1% | 17% | 20.05% | Activity (CNE-2 [21]): 5.68%; Activity (CNE-2 [22]): 8.17%; Activity (CNE-2 [23]): 1.91%; Activity (MGC-803 [24]): 34.4%; Activity (CNE-2 [25]): Dose-Dependent Effect; viability at 2 µM (CNE-2 [26]): 71.9%; inhibition [27]: Active |
| O=C1c2cccc3c(N4CCOCC4)c([N+](=O)[O-])cc(c23)C(=O)N1CCNCCN1C(=O)c2cccc3c(N4CCOCC4)c([N+](=O)[O-])cc(c23)C1=O | 2.69% | Active | 1.55% | 11.96% | 49.7% | 31.13% | 39.09% | 82.6% | Dose-Dependent Effect | 7.04% | 66.68% | Dose-Dependent Effect | Active | Toxic | 7.06% | 49.01% | 7.3% | 46% | 2.62% | 31.78% | Activity (CNE-2 [21]): 3.7%; Activity (CNE-2 [22]): 6.61%; Activity (CNE-2 [23]): 13.9%; Activity (MGC-803 [24]): 44.7%; Activity (CNE-2 [25]): Dose-Dependent Effect; viability at 2 µM (CNE-2 [26]): 70.1%; inhibition [27]: Active |
